In ChEMBL document CHEMBL5500392, “Functional and Structural Characterization of Clinical-Stage Janus Kinase 2 Inhibitors Identifies Determinants for Drug Selectivity” (J Med Chem, 2024):
The source made the active and inactive calls. The calls are words filed in the database; no cut-off is given here.

Tests used:
[1] = molecular target: T1, Tyrosine-protein kinase JAK2 (Homo sapiens, UniProt O60674); conditions: dose 30-200 µM
[2] = molecular target: T1, Tyrosine-protein kinase JAK2; conditions: dose 30-200 µM; remark: listed apart in the source
[3] = molecular target: T1, Tyrosine-protein kinase JAK2; conditions: dose 30-200 µM; remark: listed apart in the source
[4] = molecular target: T2, Tyrosine-protein kinase JAK1 (Homo sapiens, UniProt P23458); experiment: Binding affinity to recombinant human JAK1 kinase domain by fluorescence polarization assay
[5] = molecular target: T2, Tyrosine-protein kinase JAK1; experiment: Inhibition of recombinant human JAK1 assessed as inhibition of substrate phosphorylation measured every 5 mins for 30 mins by LANCE Ultra kinase assay
[6] = molecular target: T1, Tyrosine-protein kinase JAK2; experiment: Binding affinity to recombinant human JAK2 kinase domain by fluorescence polarization assay
[7] = molecular target: T3, Tyrosine-protein kinase JAK3 (Homo sapiens, UniProt P52333); experiment: Binding affinity to recombinant human JAK3 kinase domain by fluorescence polarization assay
T3 sequence (P52333 whole entry): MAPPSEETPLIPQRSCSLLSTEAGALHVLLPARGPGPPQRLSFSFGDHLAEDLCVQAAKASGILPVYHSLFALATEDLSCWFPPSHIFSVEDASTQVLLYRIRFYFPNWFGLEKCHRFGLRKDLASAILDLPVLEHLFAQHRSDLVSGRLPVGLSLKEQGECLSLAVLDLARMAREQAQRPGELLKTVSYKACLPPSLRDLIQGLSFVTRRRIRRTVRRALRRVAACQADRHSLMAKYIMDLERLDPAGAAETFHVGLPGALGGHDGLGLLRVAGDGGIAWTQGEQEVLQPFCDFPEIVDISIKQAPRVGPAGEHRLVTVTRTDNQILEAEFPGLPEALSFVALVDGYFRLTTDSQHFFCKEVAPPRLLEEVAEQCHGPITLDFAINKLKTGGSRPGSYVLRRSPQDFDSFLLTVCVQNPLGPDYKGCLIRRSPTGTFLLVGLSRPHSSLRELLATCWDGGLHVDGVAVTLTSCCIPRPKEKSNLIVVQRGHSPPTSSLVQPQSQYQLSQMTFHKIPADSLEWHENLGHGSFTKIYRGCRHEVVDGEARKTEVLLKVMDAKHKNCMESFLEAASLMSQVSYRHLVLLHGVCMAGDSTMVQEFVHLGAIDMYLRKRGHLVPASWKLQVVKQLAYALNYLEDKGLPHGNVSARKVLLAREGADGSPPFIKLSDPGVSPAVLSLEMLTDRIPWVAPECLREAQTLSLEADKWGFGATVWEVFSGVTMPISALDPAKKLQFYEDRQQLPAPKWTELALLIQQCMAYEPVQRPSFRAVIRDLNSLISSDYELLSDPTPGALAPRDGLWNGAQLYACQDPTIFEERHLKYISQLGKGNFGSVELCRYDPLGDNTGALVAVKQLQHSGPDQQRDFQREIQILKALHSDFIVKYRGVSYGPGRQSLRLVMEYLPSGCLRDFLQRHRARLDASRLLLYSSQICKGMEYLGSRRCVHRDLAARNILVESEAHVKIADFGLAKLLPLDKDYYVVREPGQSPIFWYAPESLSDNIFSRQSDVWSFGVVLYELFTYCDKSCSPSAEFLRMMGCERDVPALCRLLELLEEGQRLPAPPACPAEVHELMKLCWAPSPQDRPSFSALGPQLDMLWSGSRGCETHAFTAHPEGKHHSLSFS

[8] = molecular target: T4, Non-receptor tyrosine-protein kinase TYK2 (Homo sapiens, UniProt P29597); experiment: Binding affinity to recombinant human TYK2 kinase domain by fluorescence polarization assay
[9] = molecular target: T1, Tyrosine-protein kinase JAK2; experiment: Inhibition of recombinant human JAK2 assessed as inhibition of substrate phosphorylation measured every 5 mins for 30 mins by LANCE Ultra kinase assay
[10] = molecular target: T3, Tyrosine-protein kinase JAK3; experiment: Inhibition of recombinant human JAK3 assessed as inhibition of substrate phosphorylation measured every 5 mins for 30 mins by LANCE Ultra kinase assay
[11] = molecular target: T4, Non-receptor tyrosine-protein kinase TYK2; experiment: Inhibition of recombinant human TYK2 assessed as inhibition of substrate phosphorylation measured every 5 mins for 30 mins by LANCE Ultra kinase assay
Homo sapiens [12] = species: Homo sapiens; experiment: Selectivity index, ratio of IC50 for recombinant human JAK1 kinase domain to IC50 for recombinant human JAK2 kinase domain
[13] = molecular target: T1, Tyrosine-protein kinase JAK2; experiment: Binding affinity to recombinant human JAK2 kinase domain (840 to 1132 residues) assessed as dissociation constant by ITC analysis
[14] = molecular target: T1, Tyrosine-protein kinase JAK2; experiment: Inhibition of JAK2-mediated erythropoietin-induced STAT5 phosphorylation in human TF-1 cells pretreated for 60 mins followed by erythropoietin addition and measured after 15 mins by pacific orange/pacific blue NHS esters based Beckmann coulter flow cytometer; type: cell-based
Homo sapiens [15] = species: Homo sapiens; experiment: Selectivity index, ratio of IC50 for inhibition of JAK1/JAK3-mediated IL-2 induced STAT5 phosphorylation in human whole blood CD4+ T cells to IC50 for inhibition of JAK1/TYK2-mediated IFN-alpha induced STAT1 phosphorylation in whole blood CD33-positive monocytes; type: cell-based
Homo sapiens [16] = species: Homo sapiens; experiment: Selectivity index, ratio of IC50 for inhibition of JAK1-mediated IL-6 induced STAT3 phosphorylation in human whole blood CD33-positive monocytes to IC50 for inhibition of JAK1/TYK2-mediated IFN-alpha induced STAT1 phosphorylation in whole blood CD33-positive monocytes; type: cell-based
Homo sapiens [17] = species: Homo sapiens; experiment: Selectivity index, ratio of IC50 for inhibition of JAK1/JAK2-mediated IFNgamma-induced STAT1 phosphorylation in human whole blood CD33-positive monocytes to IC50 for inhibition of JAK1/TYK2-mediated IFN-alpha induced STAT1 phosphorylation in whole blood CD33-positive monocytes; type: cell-based
Homo sapiens [18] = species: Homo sapiens; experiment: Selectivity index, ratio of IC50 for inhibition of JAK2-mediated GM-CSF-induced STAT5 phosphorylation in human whole blood CD33-positive monocytes to IC50 for inhibition of JAK1/TYK2-mediated IFN-alpha induced STAT1 phosphorylation in whole blood CD33-positive monocytes; type: cell-based
[19] = molecular target: T2, Tyrosine-protein kinase JAK1; experiment: Binding affinity to recombinant human JAK1 JH2 (553 to 856-His residues) pseudokinase domain by fluorescence polarization assay
[20] = molecular target: T4, Non-receptor tyrosine-protein kinase TYK2; experiment: Binding affinity to recombinant human TYK2 JH2 (564 to 876-His residues) pseudokinase domain by fluorescence polarization assay
BaF3 [21] = experiment: Cytotoxicity against IL-3 dependent humanized mouse BaF3 cells expressing wild type human JAK2 assessed as inhibition of cell growth incubated for 48 hrs by alamarBlue assay; type: functional, cell-based
BaF3 [22] = experiment: Cytotoxicity against IL-3 dependent humanized mouse BaF3 cells expressing human JAK2 V617F mutant assessed as inhibition of cell growth incubated for 48 hrs by alamarBlue assay; type: functional, cell-based
[23] = molecular target: T1, Tyrosine-protein kinase JAK2; experiment: Binding affinity to recombinant human JAK2 kinase domain (840 to 1132 residues) assessed as gibbs free energy change at 30 to 200 uM by fluorescence polarization measurement combined ITC analysis; conditions: dose 30-200 µM
[24] = molecular target: T1, Tyrosine-protein kinase JAK2; experiment: Binding affinity to recombinant human JAK2 kinase domain (840 to 1132 residues) assessed as dissociation constant by fluorescence polarization measurement combined ITC analysis
[25] = molecular target: T1, Tyrosine-protein kinase JAK2; experiment: Binding affinity to recombinant human JAK2 kinase domain (840 to 1132 residues) assessed as change in enthalpy at 30 to 200 uM by fluorescence polarization measurement combined ITC analysis; conditions: dose 30-200 µM
[26] = molecular target: T1, Tyrosine-protein kinase JAK2; experiment: Binding affinity to recombinant human JAK2 kinase domain (840 to 1132 residues) assessed as change in entropy at 30 to 200 uM by fluorescence polarization measurement combined ITC analysis; conditions: dose 30-200 µM
[27] = Selectivity index, ratio of IC50 for cytotoxicity against IL-3 dependent humanized mouse BaF3 cells expressing wild type human JAK2 to IC50 for cytotoxicity against IL-3 dependent humanized mouse BaF3 cells expressing human JAK2 V617F mutant; type: functional

T1 sequence (O60674 whole entry): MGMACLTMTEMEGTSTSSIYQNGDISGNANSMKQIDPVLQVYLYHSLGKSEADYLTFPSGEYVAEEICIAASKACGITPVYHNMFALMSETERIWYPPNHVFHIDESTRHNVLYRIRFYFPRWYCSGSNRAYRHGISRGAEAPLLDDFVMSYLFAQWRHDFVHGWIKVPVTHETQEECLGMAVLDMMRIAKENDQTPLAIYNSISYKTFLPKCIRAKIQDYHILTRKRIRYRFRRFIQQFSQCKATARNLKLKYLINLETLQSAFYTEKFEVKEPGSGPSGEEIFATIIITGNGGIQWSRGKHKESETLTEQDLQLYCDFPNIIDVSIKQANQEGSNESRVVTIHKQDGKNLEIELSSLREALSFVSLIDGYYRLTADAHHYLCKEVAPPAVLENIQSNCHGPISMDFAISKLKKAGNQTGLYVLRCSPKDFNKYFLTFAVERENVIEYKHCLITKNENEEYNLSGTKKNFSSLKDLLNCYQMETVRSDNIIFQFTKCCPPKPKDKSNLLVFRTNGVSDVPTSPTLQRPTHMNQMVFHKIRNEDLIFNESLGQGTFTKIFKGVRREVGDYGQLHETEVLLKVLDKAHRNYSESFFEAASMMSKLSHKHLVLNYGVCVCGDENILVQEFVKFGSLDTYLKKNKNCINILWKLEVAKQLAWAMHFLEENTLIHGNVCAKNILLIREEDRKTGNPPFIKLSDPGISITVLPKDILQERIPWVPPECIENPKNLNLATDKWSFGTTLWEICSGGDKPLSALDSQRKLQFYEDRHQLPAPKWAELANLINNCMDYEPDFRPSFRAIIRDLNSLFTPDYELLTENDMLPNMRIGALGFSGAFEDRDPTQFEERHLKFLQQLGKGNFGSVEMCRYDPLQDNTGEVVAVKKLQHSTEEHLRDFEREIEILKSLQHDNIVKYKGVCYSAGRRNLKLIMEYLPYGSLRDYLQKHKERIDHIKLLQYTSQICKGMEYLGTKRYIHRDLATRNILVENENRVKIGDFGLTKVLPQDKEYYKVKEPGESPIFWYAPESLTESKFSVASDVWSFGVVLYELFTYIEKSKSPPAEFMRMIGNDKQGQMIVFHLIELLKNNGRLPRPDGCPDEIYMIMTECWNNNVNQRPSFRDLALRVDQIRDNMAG
T2 sequence (P23458 whole entry, the tested form may be a part): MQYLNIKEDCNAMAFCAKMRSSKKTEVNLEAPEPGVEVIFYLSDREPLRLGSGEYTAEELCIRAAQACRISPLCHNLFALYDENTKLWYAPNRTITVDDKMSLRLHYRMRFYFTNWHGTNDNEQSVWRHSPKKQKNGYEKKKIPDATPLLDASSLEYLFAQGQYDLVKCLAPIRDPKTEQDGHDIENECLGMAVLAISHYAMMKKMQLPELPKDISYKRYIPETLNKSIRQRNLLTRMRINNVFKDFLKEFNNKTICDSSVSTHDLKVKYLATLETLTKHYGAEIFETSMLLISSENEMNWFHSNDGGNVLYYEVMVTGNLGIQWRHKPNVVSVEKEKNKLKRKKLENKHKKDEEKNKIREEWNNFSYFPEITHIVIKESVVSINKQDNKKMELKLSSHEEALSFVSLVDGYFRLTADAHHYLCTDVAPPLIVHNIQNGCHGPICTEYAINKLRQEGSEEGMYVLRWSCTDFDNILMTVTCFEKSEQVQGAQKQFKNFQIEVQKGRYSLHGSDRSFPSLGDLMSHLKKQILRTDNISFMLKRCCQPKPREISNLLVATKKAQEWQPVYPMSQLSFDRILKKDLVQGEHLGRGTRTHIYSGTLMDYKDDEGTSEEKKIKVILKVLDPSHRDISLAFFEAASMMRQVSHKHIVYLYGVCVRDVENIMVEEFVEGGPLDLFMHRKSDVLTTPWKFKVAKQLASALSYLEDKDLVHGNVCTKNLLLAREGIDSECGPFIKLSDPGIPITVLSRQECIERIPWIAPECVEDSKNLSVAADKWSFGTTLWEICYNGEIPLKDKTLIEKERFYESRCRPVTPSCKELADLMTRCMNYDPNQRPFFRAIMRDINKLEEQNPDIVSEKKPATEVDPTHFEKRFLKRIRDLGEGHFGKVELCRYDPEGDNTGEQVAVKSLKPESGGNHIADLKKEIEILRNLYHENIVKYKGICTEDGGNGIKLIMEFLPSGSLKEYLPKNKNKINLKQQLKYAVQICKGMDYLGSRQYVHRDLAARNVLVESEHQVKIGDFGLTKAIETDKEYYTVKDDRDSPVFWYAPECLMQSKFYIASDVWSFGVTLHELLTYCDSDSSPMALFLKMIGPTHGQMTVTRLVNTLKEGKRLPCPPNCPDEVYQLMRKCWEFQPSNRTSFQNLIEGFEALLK
T4 sequence (P29597 whole entry, the tested form may be a part): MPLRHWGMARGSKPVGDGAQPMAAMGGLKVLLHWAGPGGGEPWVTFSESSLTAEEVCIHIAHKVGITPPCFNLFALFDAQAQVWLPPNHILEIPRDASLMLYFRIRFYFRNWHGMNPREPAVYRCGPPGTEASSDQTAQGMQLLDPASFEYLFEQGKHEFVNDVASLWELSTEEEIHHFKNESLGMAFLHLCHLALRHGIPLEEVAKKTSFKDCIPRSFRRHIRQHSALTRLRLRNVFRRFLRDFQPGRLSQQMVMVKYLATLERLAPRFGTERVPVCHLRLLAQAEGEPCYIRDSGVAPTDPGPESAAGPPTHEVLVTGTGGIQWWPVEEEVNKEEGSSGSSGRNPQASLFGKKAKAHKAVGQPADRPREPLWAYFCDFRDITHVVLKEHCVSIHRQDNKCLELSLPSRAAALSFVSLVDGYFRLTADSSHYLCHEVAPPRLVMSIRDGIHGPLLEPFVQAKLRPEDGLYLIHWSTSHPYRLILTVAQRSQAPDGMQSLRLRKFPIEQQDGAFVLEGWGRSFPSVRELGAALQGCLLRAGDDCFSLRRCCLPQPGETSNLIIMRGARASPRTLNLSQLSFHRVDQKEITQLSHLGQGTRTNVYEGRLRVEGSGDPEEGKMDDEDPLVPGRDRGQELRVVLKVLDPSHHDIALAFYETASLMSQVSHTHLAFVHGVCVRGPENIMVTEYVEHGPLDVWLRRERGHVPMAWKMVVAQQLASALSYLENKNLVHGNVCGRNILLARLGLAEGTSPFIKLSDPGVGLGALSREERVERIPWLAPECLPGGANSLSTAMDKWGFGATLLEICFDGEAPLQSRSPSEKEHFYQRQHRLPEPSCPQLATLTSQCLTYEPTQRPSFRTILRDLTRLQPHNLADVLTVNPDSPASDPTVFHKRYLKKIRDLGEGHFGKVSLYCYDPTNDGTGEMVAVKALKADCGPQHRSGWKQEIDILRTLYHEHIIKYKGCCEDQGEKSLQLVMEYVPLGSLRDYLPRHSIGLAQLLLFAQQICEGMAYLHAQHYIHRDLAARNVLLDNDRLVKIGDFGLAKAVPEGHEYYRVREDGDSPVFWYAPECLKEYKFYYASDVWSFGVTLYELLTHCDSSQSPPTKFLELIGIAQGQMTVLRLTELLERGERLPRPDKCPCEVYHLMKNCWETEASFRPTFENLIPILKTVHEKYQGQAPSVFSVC

SMILES	deltaG [1]	deltaH [2]	-TdeltaS [3]	Kd [4]	IC50 [5]	Kd [6]	Kd [8]	IC50 [9]	IC50 [11]	IC50 [14]	also measured
N#CCNC(=O)c1ccc(-c2ccnc(Nc3ccc(N4CCOCC4)cc3)n2)cc1	-11.3 kcal/mol	-14.4 kcal/mol	3.2 kcal/mol								
O=C(Nc1c[nH]nc1-c1nc2cc(CN3CCOCC3)ccc2[nH]1)NC1CC1 [AT-9283]				37 nM	65 nM						
C[C@H](Nc1cc(-c2cnn(C)c2)cc(Nc2cnccn2)n1)c1ccc(F)cc1 [NS-018]	-11.3 kcal/mol	-12.5 kcal/mol	1.2 kcal/mol	16 nM	7.1 nM	4.5 nM	21 nM	0.8 nM	216 nM	41 nM	Kd [7]: 19 nM; IC50 [10]: 182 nM; Ratio IC50 (Homo sapiens [12]): 9; Kd [13]: 4 nM; Ratio IC50 (Homo sapiens [15]): 1.7; Ratio IC50 (Homo sapiens [16]): 2.8; Ratio IC50 (Homo sapiens [17]): 0.6; Ratio IC50 (Homo sapiens [18]): 5.8
CCS(=O)(=O)N1CCN(c2ccc(Nc3ncc(C(N)=O)c(NC4CC4)n3)cc2)CC1 [CERDULATINIB]	-10.8 kcal/mol	-10.4 kcal/mol	-0.4 kcal/mol	23 nM	22 nM	4.8 nM	6.9 nM	11 nM	26 nM	99 nM	Activity [19]: Active; Activity [20]: Active; Kd [13]: 8.9 nM
N#CC[C@H](C1CCCC1)n1cc(-c2ncnc3[nH]ccc23)cn1											Activity (BaF3 [21]): Active; Activity (BaF3 [22]): Active
C1=N/C2=N/c3ccc(OCCN4CCCC4)c(c3)COC/C=C/COCc3cccc(c3)C(=C1)N2	-10.9 kcal/mol	-7.6 kcal/mol	-3.3 kcal/mol								Activity [20]: Active
Cc1cc(Nc2cc(CN3CCOCC3)c3nc(C)c(Cc4ccc(Cl)cc4F)n3n2)n[nH]1 [GANDOTINIB]				8.2 nM	7.3 nM	11 nM	16 nM	6.2 nM	92 nM	155 nM	Kd [7]: 13 nM; IC50 [10]: 199 nM; deltaG [23]: -10.7 kcal/mol; Kd [24]: 11 nM; deltaH [25]: -4.1 kcal/mol; -TdeltaS [26]: -6.6 kcal/mol; Ratio IC50 (Homo sapiens [15]): 1.1; Ratio IC50 (Homo sapiens [16]): 4; Ratio IC50 (Homo sapiens [17]): 2.3; Ratio IC50 (Homo sapiens [18]): 7.5; Ratio IC50 [27]: 1.5
N#CCC1(n2cc(-c3ncnc4[nH]ccc34)cn2)CN(C2CCN(C(=O)c3ccnc(C(F)(F)F)c3F)CC2)C1 [ITACITINIB]	-10.7 kcal/mol	-5.4 kcal/mol	-5.4 kcal/mol	51 nM	3.4 nM	26 nM	385 nM	54 nM	4100 nM	488 nM	Kd [7]: 324 nM; IC50 [10]: 10800 nM; Kd [13]: 10.7 nM; Ratio IC50 (Homo sapiens [15]): 0.4; Ratio IC50 (Homo sapiens [16]): 1.2; Ratio IC50 (Homo sapiens [17]): 0.8; Ratio IC50 (Homo sapiens [18]): 16.7
C1=C/COCc2cc(ccc2OCCN2CCCC2)Nc2nccc(n2)-c2cccc(c2)COC/1 [PACRITINIB]				318 nM	371 nM		125 nM		536 nM		
O=C(Nc1c[nH]nc1-c1nc2ccc(CN3CCOCC3)cc2[nH]1)NC1CC1											Activity [19]: Active; Activity [20]: Active
C[C@]12O[C@H](C[C@]1(O)CO)n1c3ccccc3c3c4c(c5c6ccccc6n2c5c31)CNC4=O											Activity (BaF3 [21]): Active; Activity (BaF3 [22]): Active
